Experimental data published in patent US10227344B2, “CK2 inhibitors, compositions and methods thereof” (Polaris Pharmaceuticals, Inc., priority 2016, dated 2019).

Experiments:
Type in all cases: cell-based
BT-20 = experiment: Cancer cell panel, cell viability (resazurin): Breast, BT-20; settings: BT-20 (Breast), 72 hours; labelled drug combined with Example 3
786-O = experiment: Cancer cell panel, cell viability (resazurin): Renal, 786-O; settings: 786-O (Renal), 72 hours; labelled drug combined with Example 3
WM-115 = experiment: Cancer cell panel, cell viability (resazurin): Melanoma, WM-115; settings: WM-115 (Melanoma), 72 hours; labelled drug combined with Example 3
MeWO = experiment: Cancer cell panel, cell viability (resazurin): Melanoma, MeWO; settings: 72 hours, labelled drug combined with Example 3
Colo205 = experiment: Cancer cell panel, cell viability (resazurin): Colon, Colo205; settings: 72 hours, labelled drug combined with Example 3
A2780 = experiment: Cancer cell panel, cell viability (resazurin): Ovarian, A2780; settings: 72 hours, labelled drug combined with Example 3
EOL-1 = experiment: Cancer cell panel, cell viability (resazurin): Leukemia, EOL-1; settings: EOL-1 (Leukemia), 72 hours; labelled drug combined with Example 3
MDA-MB-157 = experiment: Cancer cell panel, cell viability (resazurin): Breast, MDA-MB-157; settings: MDA-MB-157 (Breast), 72 hours; labelled drug combined with Example 3
BxPC3 = experiment: Cancer cell panel, cell viability (resazurin): Pancreatic, BxPC3; settings: 72 hours, labelled drug combined with Example 3
A549 = experiment: Cancer cell panel, cell viability (resazurin): NSCLC, A549; settings: 72 hours, labelled drug combined with Example 3
HT29 = experiment: Cancer cell panel, cell viability (resazurin): Colon, HT29; settings: 72 hours, labelled drug combined with Example 3
Caki-2 = experiment: Cancer cell panel, cell viability (resazurin): Renal, Caki-2; settings: Caki-2 (Renal), 72 hours; labelled drug combined with Example 3
Caov-3 = experiment: Cancer cell panel, cell viability (resazurin): Ovarian, Caov-3; settings: Caov-3 (Ovarian), 72 hours; labelled drug combined with Example 3
MDA-MB-231 = experiment: Cancer cell panel, cell viability (resazurin): Breast, MDA-MB-231; settings: MDA-MB-231 (Breast), 72 hours; labelled drug combined with Example 3
H1299 = experiment: Cancer cell panel, cell viability (resazurin): NSCLC, H1299; settings: 72 hours, labelled drug combined with Example 3
SK-MEL-3 = experiment: Cancer cell panel, cell viability (resazurin): Melanoma, SK-MEL-3; settings: SK-MEL-3 (Melanoma), 72 hours; labelled drug combined with Example 3
MOLT4 = experiment: Cancer cell panel, cell viability (resazurin): Leukemia, MOLT4; settings: 72 hours, labelled drug combined with Example 3
SK-MEL-24 = experiment: Cancer cell panel, cell viability (resazurin): Melanoma, SK-MEL-24; settings: SK-MEL-24 (Melanoma), 72 hours; labelled drug combined with Example 3
OVCAR-3 = experiment: Cancer cell panel, cell viability (resazurin): Ovarian, OVCAR-3; settings: OVCAR-3 (Ovarian), 72 hours; labelled drug combined with Example 3
H460 = experiment: Cancer cell panel, cell viability (resazurin): NSCLC, H460; settings: 72 hours, labelled drug combined with Example 3
HCT116 = experiment: Cancer cell panel, cell viability (resazurin): Colon, HCT116; settings: 72 hours, labelled drug combined with Example 3
LoVo = experiment: Cancer cell panel, cell viability (resazurin): Colon, LoVo; settings: 72 hours, labelled drug combined with Example 3
RPMI8226 = experiment: Cancer cell panel, cell viability (resazurin): multiple myeloma, RPMI8226; settings: 72 hours, labelled drug combined with Example 3
U266 = experiment: Cancer cell panel, cell viability (resazurin): multiple myeloma, U266; settings: 72 hours, labelled drug combined with Example 3
ZR-75-1 = experiment: Cancer cell panel, cell viability (resazurin): Breast, ZR-75-1; settings: ZR-75-1 (Breast), 72 hours; labelled drug combined with Example 3
A375 = experiment: Cancer cell panel, cell viability (resazurin): Melanoma, A375; settings: 72 hours, labelled drug combined with Example 3
H23 = experiment: Cancer cell panel, cell viability (resazurin): NSCLC, H23; settings: 72 hours, labelled drug combined with Example 3
HL60 = experiment: Cancer cell panel, cell viability (resazurin): Leukemia, HL60; settings: 72 hours, labelled drug combined with Example 3
K562 = experiment: Cancer cell panel, cell viability (resazurin): Leukemia, K562; settings: 72 hours, labelled drug combined with Example 3
H1975 = experiment: Cancer cell panel, cell viability (resazurin): NSCLC, H1975; settings: 72 hours, labelled drug combined with Example 3
Caki-1 = experiment: Cancer cell panel, cell viability (resazurin): Renal, Caki-1; settings: Caki-1 (Renal), 72 hours; labelled drug combined with Example 3
U87MG = experiment: Cancer cell panel, cell viability (resazurin): Glioblastoma, U87MG; settings: 72 hours, labelled drug combined with Example 3
Mia-Paca-2 = experiment: Cancer cell panel, cell viability (resazurin): Pancreatic, Mia-Paca-2; settings: Mia-Paca-2 (Pancreatic), 72 hours; labelled drug combined with Example 3
DLD-1 = experiment: Cancer cell panel, cell viability (resazurin): Colon, DLD-1; settings: DLD-1 (Colon), 72 hours; labelled drug combined with Example 3
Panc-1 = experiment: Cancer cell panel, cell viability (resazurin): Pancreatic, Panc-1; settings: Panc-1 (Pancreatic), 72 hours; labelled drug combined with Example 3

For `CC(=O)Nc1cccc(-n2c(=O)n(C3CC3)c(=O)c3c(Nc4ccc(I)cc4F)n(C)c(=O)c(C)c32)c1` [Trametinib, trametinib], the “synergy, additivity or antagonism of the combination of Example 3 with the anti-cancer drug” value (shortened to “synergy, additivity or antagonism”) (BT-20) was “+ + + (Synergy relative to each agent alone (CI = 0.4-0.74 by Bliss Independence Model))”, the “synergy, additivity or antagonism” value (786-O) was “+ + + (Synergy relative to each agent alone (CI = 0.4-0.74 by Bliss Independence Model))” and the “synergy, additivity or antagonism” value (WM-115) was “+ + (Slight synergy relative to each agent alone (CI = 0.75-0.9 by Bliss Independence Model))”. For the same compound, the “synergy, additivity or antagonism” value (MeWO) was “+ + (Slight synergy relative to each agent alone (CI = 0.75-0.9 by Bliss Independence Model))”, the “synergy, additivity or antagonism” value (Colo205) was “+ + + (Synergy relative to each agent alone (CI = 0.4-0.74 by Bliss Independence Model))” and the “synergy, additivity or antagonism” value (A2780) was “+ + (Slight synergy relative to each agent alone (CI = 0.75-0.9 by Bliss Independence Model))”. The “synergy, additivity or antagonism” value (EOL-1) was “+ + (Slight synergy relative to each agent alone (CI = 0.75-0.9 by Bliss Independence Model))”, the “synergy, additivity or antagonism” value (MDA-MB-157) was “+ + (Slight synergy relative to each agent alone (CI = 0.75-0.9 by Bliss Independence Model))” and the “synergy, additivity or antagonism” value (BxPC3) was “+ + + + (Strong synergy relative to each agent alone (CI < 0.4 by Bliss Independence Model))”. The “synergy, additivity or antagonism” value (A549) was “+ + + + (Strong synergy relative to each agent alone (CI < 0.4 by Bliss Independence Model))”, the “synergy, additivity or antagonism” value (HT29) was “+ (Additive relative to each agent alone (CI = 0.9-1 by Bliss Independence Model and <0.9 by Highest Single Agent Model))” and the “synergy, additivity or antagonism” value (Caki-2) was “− − − (Strongly antagonistic relative to each agent alone (CI > 1.49 by Highest Single Agent Model))”. The “synergy, additivity or antagonism” value (Caov-3) was “+ + (Slight synergy relative to each agent alone (CI = 0.75-0.9 by Bliss Independence Model))”, the “synergy, additivity or antagonism” value (MDA-MB-231) was “+ + (Slight synergy relative to each agent alone (CI = 0.75-0.9 by Bliss Independence Model))” and the “synergy, additivity or antagonism” value (H1299) was “+ (Additive relative to each agent alone (CI = 0.9-1 by Bliss Independence Model and <0.9 by Highest Single Agent Model))”. For the same compound, the “synergy, additivity or antagonism” value (SK-MEL-3) was “+ (Additive relative to each agent alone (CI = 0.9-1 by Bliss Independence Model and <0.9 by Highest Single Agent Model))”, the “synergy, additivity or antagonism” value (MOLT4) was “+ (Additive relative to each agent alone (CI = 0.9-1 by Bliss Independence Model and <0.9 by Highest Single Agent Model))” and the “synergy, additivity or antagonism” value (SK-MEL-24) was “+ + (Slight synergy relative to each agent alone (CI = 0.75-0.9 by Bliss Independence Model))”. The “synergy, additivity or antagonism” value (OVCAR-3) was “+ + (Slight synergy relative to each agent alone (CI = 0.75-0.9 by Bliss Independence Model))”, the “synergy, additivity or antagonism” value (H460) was “+ + + (Synergy relative to each agent alone (CI = 0.4-0.74 by Bliss Independence Model))” and the “synergy, additivity or antagonism” value (HCT116) was “+ + + (Synergy relative to each agent alone (CI = 0.4-0.74 by Bliss Independence Model))”. For the same compound, the “synergy, additivity or antagonism” value (LoVo) was “+ + (Slight synergy relative to each agent alone (CI = 0.75-0.9 by Bliss Independence Model))”, the “synergy, additivity or antagonism” value (RPMI8226) was “+ + (Slight synergy relative to each agent alone (CI = 0.75-0.9 by Bliss Independence Model))” and the “synergy, additivity or antagonism” value (U266) was “+ + (Slight synergy relative to each agent alone (CI = 0.75-0.9 by Bliss Independence Model))”. For the same compound, the “synergy, additivity or antagonism” value (ZR-75-1) was “+ + (Slight synergy relative to each agent alone (CI = 0.75-0.9 by Bliss Independence Model))”, the “synergy, additivity or antagonism” value (A375) was “+ + (Slight synergy relative to each agent alone (CI = 0.75-0.9 by Bliss Independence Model))” and the “synergy, additivity or antagonism” value (H23) was “+ + + (Synergy relative to each agent alone (CI = 0.4-0.74 by Bliss Independence Model))”. The “synergy, additivity or antagonism” value (HL60) was “+ + (Slight synergy relative to each agent alone (CI = 0.75-0.9 by Bliss Independence Model))”, the “synergy, additivity or antagonism” value (K562) was “+ (Additive relative to each agent alone (CI = 0.9-1 by Bliss Independence Model and <0.9 by Highest Single Agent Model))” and the “synergy, additivity or antagonism” value (H1975) was “+ + + (Synergy relative to each agent alone (CI = 0.4-0.74 by Bliss Independence Model))”. The “synergy, additivity or antagonism” value (Caki-1) was “+ (Additive relative to each agent alone (CI = 0.9-1 by Bliss Independence Model and <0.9 by Highest Single Agent Model))”, the “synergy, additivity or antagonism” value (U87MG) was “+ + (Slight synergy relative to each agent alone (CI = 0.75-0.9 by Bliss Independence Model))” and the “synergy, additivity or antagonism” value (Mia-Paca-2) was “+ (Additive relative to each agent alone (CI = 0.9-1 by Bliss Independence Model and <0.9 by Highest Single Agent Model))”. The “synergy, additivity or antagonism” value (DLD-1) was “+ + + (Synergy relative to each agent alone (CI = 0.4-0.74 by Bliss Independence Model))” and the “synergy, additivity or antagonism” value (Panc-1) was “+ (Additive relative to each agent alone (CI = 0.9-1 by Bliss Independence Model and <0.9 by Highest Single Agent Model))”.
